Values quoted from earlier work as cited in PMC9014651 (Bioorganic Chemistry, 2022).

System: coronavirus variants (B.1.1.7 and B.1.351)
Conditions: cited from earlier work

Cc1ccc(NC(=O)c2ccc(CN3CCN(C)CC3)cc2)cc1Nc1nc(-c2cccnc2)cs1 [Masitinib]
Effect on tested coronavirus variants in vitro: effective
